Test results: US20250186437A1, “CARBOLINE COMPOUNDS AND USE THEREOF” (PTC Therapeutics, Inc., priority 2021, published 2025)

How the values were obtained:
MOLM-13 cells [1] = assay: MOLM-13 Uridine Rescue Assay; assay type: cell-based; settings: Homo sapiens; MOLM-13 cell proliferation with 100 μM Uridine added, 72 Hours of culture
Method: The following assay was conducted to measure proliferation of MOLM-13 cells in the presence of each compound studied. This assay was included as an indicator of DHODH inhibition, as growth of MOLM-13 cells is known to depend on synthesis of pyrimidines using the de novo pathway, which can be blocked by inhibition of DHODH. • 1. MOLM-13 cells were cultured in RPMI 1640 medium+10% Fetal Bovine Serum (FBS). Only low passage cells (<20) were used for the compound tests • 2. On day 1, Log-phase growing Molm-13 Cells were counted and diluted to 10^5 cells/mL in RPMI 1640 medium+10% FBS • 3. 100 μL of diluted MOLM-13 cells in 96 well white plates were seeded, for a final density of 10^4 cells/well. • 4. 0.5 μL of pre-diluted 200× compounds or DMSO control was added to each well. The final DMSO concentration was 0.5%. • 5. After 72 Hours of culture at 37° C., 5% CO2, the plates were taken out and cooled to RT, then 50 μL CellTiter-Glo® (Promega) was added, and the composition was mixed at RT for 10 minutes. • 6. The plates were then read by ViewLux (Speed-fast, Gain-High, Bining-1X, 5 seconds).
Several compounds were also tested in a Uridine rescue assay. In the Uridine rescue assay, using the procedure in Example 1 above, an additional plate of MOLM-13 cell cultures was prepared, to which 100 μM of Uridine was added in step 3 of the process.

MOLM-13 cells [2] = assay: MOLM-13 Cell Proliferation Assay (indicator of DHODH inhibition); assay type: cell-based; settings: Homo sapiens, 72 Hours of culture, CellTiter-Glo, no uridine
In short: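 Proliferation readout via CellTiter-Glo luminescence after 72 h compound treatment (37 °C, 5% CO2, 0.5% DMSO) of MOLM-13 cells seeded at 10^4 per well in RPMI 1640/10% FBS, used as a DHODH-inhibition indicator since these cells rely on de novo pyrimidine synthesis.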

SMILES	IC50 (MOLM-13 cells [1]) [nM]	IC50 (MOLM-13 cells [2]) [nM]
Cc1ccc(C2c3[nH]c4c(O)cc(Cl)cc4c3CCN2c2nccc(C(F)(F)F)n2)c(F)c1F (centres unmarked) [Compound 220, 6-chloro-1-(2,3-difluoro-4-methylphenyl)-2-[4-(trifluoromethyl)pyrimidin-2-yl]-2,3,4,9-tetrahydro-1H-pyrido[3,4-b]indol-8-ol]	6700	1.1
Cc1ccc(C2c3[nH]c4c(N)cc(Cl)cc4c3CCN2c2nccc(C(F)(F)F)n2)cc1 (centres unmarked) [Compound 231, 6-chloro-1-(4-methylphenyl)-2-[4-(trifluoromethyl)pyrimidin-2-yl]-2,3,4,9-tetrahydro-1H-pyrido[3,4-b]indol-8-amine]	19300	1.1
Cc1ccc([C@H]2c3[nH]c4ccc(Cl)cc4c3CCN2c2nccc(C(F)(F)F)n2)c(F)c1F [Compound 233, (1S)-6-chloro-1-(2,3-difluoro-4-methylphenyl)-2-[4-(trifluoromethyl)pyrimidin-2-yl]-2,3,4,9-tetrahydro-1H-pyrido[3,4-b]indole]	12400	0.4
Cc1ccc(C2c3[nH]c4c(N)cc(Cl)cc4c3CCN2c2nccc(C(F)(F)F)n2)c(F)c1F (centres unmarked) [Compound 248, 6-chloro-1-(2,3-difluoro-4-methylphenyl)-2-[4-(trifluoromethyl)pyrimidin-2-yl]-2,3,4,9-tetrahydro-1H-pyrido[3,4-b]indol-8-amine]	8550	0.5
Cc1nc(C)nc(N2CCc3c([nH]c4ccc(Cl)cc34)C2c2ccc(C)c(F)c2F)n1 (centres unmarked) [Compound 253, 6-chloro-1-(2,3-difluoro-4-methylphenyl)-2-(4,6-dimethyl-1,3,5-triazin-2-yl)-2,3,4,9-tetrahydro-1H-pyrido[3,4-b]indole]	6560	1.9
Cc1ccc(C2c3[nH]c4ccc(Cl)cc4c3CCN2c2nccc(C(F)(F)F)n2)c(F)c1 (centres unmarked) [Compound 254, 6-chloro-1-(2-fluoro-4-methylphenyl)-2-[4-(trifluoromethyl)pyrimidin-2-yl]-2,3,4,9-tetrahydro-1H-pyrido[3,4-b]indole]	6910	2.2
Cc1ccc(C2c3[nH]c4ccc(Br)cc4c3CCN2c2nccc(C(F)(F)F)n2)cc1 (centres unmarked) [Compound 264, 6-bromo-1-(4-methylphenyl)-2-[4-(trifluoromethyl)pyrimidin-2-yl]-2,3,4,9-tetrahydro-1H-pyrido[3,4-b]indole]	20900	0.9
Cc1ccc2[nH]c3c(c2c1)CCN(c1nccc(C(F)(F)F)n1)C3c1ccc(C)c(F)c1F (centres unmarked) [Compound 271, 1-(2,3-difluoro-4-methylphenyl)-6-methyl-2-[4-(trifluoromethyl)pyrimidin-2-yl]-2,3,4,9-tetrahydro-1H-pyrido[3,4-b]indole]	22700	3.7
COCCOc1ncc(C2c3[nH]c4ccc(Cl)cc4c3CCN2c2nc(C(F)(F)F)nc(C(F)(F)F)n2)cn1 (centres unmarked) [Compound 536, 2-[4,6-bis(trifluoromethyl)-1,3,5-triazin-2-yl]-6-chloro-1-[2-(2-methoxyethoxy)pyrimidin-5-yl]-2,3,4,9-tetrahydro-1H-pyrido[3,4-b]indole]	–	1.2
O=C(O)CCNc1ncc([C@H]2c3[nH]c4ccc(Cl)cc4c3CCN2c2nc(C(F)(F)F)nc(C(F)(F)F)n2)cn1 [Compound 537, N-(5-{(1S)-2-[4,6-bis(trifluoromethyl)-1,3,5-triazin-2-yl]-6-chloro-2,3,4,9-tetrahydro-1H-pyrido[3,4-b]indol-1-yl}pyrimidin-2-yl)-β-alanine]	–	4
Cc1ccc(C2c3[nH]c4cc(F)c(Cl)cc4c3CCN2c2nc(Cl)cc(N(C)C)n2)cc1 (centres unmarked) [Cpd 17, 6-chloro-2-[6-chloro-7-fluoro-1-(4-methylphenyl)-1,3,4,9-tetrahydro-2H-pyrido[3,4-b]indol-2-yl]-N,N-dimethylpyrimidin-4-amine]	–	18.4

The remaining lines, values ahead:

IC50 (MOLM-13 cells [1]) [nM]	IC50 (MOLM-13 cells [2]) [nM]	SMILES
18800	3.5	Cc1ccc(C2c3[nH]c4cc(F)c(Cl)cc4c3CCN2c2nccc(C(F)(F)F)n2)cc1 (centres unmarked) [Compound 72, 6-chloro-7-fluoro-1-(4-methylphenyl)-2-[4-(trifluoromethyl)pyrimidin-2-yl]-2,3,4,9-tetrahydro-1H-pyrido[3,4-b]indole]
8270	1.9	Fc1cc2[nH]c3c(c2cc1Cl)CCN(c1nccc(C(F)(F)F)n1)C3c1cccc(F)c1F (centres unmarked) [Compound 108, 6-chloro-1-(2,3-difluorophenyl)-7-fluoro-2-[4-(trifluoromethyl)pyrimidin-2-yl]-2,3,4,9-tetrahydro-1H-pyrido[3,4-b]indole]
14900	0.6	Fc1cc2[nH]c3c(c2cc1Cl)CCN(c1nc(C(F)(F)F)cc(C(F)(F)F)n1)C3c1cccc(F)c1F (centres unmarked) [Compound 157, 2-[4,6-bis(trifluoromethyl)pyrimidin-2-yl]-6-chloro-1-(2,3-difluorophenyl)-7-fluoro-2,3,4,9-tetrahydro-1H-pyrido[3,4-b]indole]
17500	1.1	Cc1ccc(C2c3[nH]c4ccc(Cl)c(F)c4c3CCN2c2nccc(C(F)(F)F)n2)c(F)c1F (centres unmarked) [Compound 197, 6-chloro-1-(2,3-difluoro-4-methylphenyl)-5-fluoro-2-[4-(trifluoromethyl)pyrimidin-2-yl]-2,3,4,9-tetrahydro-1H-pyrido[3,4-b]indole]
7600	1	Cc1cc(C(F)(F)F)nc(N2CCc3c([nH]c4ccc(Cl)cc34)C2c2ccc(C)c(F)c2F)n1 (centres unmarked) [Compound 213, 6-chloro-1-(2,3-difluoro-4-methylphenyl)-2-[4-methyl-6-(trifluoromethyl)pyrimidin-2-yl]-2,3,4,9-tetrahydro-1H-pyrido[3,4-b]indole]
15600	2.2	N#Cc1ccc(C2c3[nH]c4ccc(Cl)cc4c3CCN2c2nccc(C(F)(F)F)n2)c(F)c1 (centres unmarked) [Compound 255, 4-{6-chloro-2-[4-(trifluoromethyl)pyrimidin-2-yl]-2,3,4,9-tetrahydro-1H-pyrido[3,4-b]indol-1-yl}-3-fluorobenzonitrile]
10700	3	Cc1ccc(C2c3[nH]c4ccc([N+](=O)[O-])cc4c3CCN2c2nccc(C(F)(F)F)n2)cc1 (centres unmarked) [Compound 265, 1-(4-methylphenyl)-6-nitro-2-[4-(trifluoromethyl)pyrimidin-2-yl]-2,3,4,9-tetrahydro-1H-pyrido[3,4-b]indole]
7680	7.9	Cc1cc(N)c2[nH]c3c(c2c1)CCN(c1nccc(C(F)(F)F)n1)C3c1ccc(C)c(F)c1F (centres unmarked) [Compound 272, 1-(2,3-difluoro-4-methylphenyl)-6-methyl-2-[4-(trifluoromethyl)pyrimidin-2-yl]-2,3,4,9-tetrahydro-1H-pyrido[3,4-b]indol-8-amine]
–	0.8	COCCOc1ncc([C@H]2c3[nH]c4ccc(Cl)cc4c3CCN2c2nc(C(F)(F)F)nc(C(F)(F)F)n2)cn1 [Compound 534, (1S)-2-[4,6-bis(trifluoromethyl)-1,3,5-triazin-2-yl]-6-chloro-1-[2-(2-methoxyethoxy)pyrimidin-5-yl]-2,3,4,9-tetrahydro-1H-pyrido[3,4-b]indole]
–	0.7	OCCNc1ncc([C@H]2c3[nH]c4ccc(Cl)cc4c3CCN2c2nc(C(F)(F)F)nc(C(F)(F)F)n2)cn1 [Compound 535, 2-[(5-{(1S)-2-[4,6-bis(trifluoromethyl)-1,3,5-triazin-2-yl]-6-chloro-2,3,4,9-tetrahydro-1H-pyrido[3,4-b]indol-1-yl}pyrimidin-2-yl)amino]ethan-1-ol]
–	0.4	O=C(O)CCCNc1ncc([C@H]2c3[nH]c4ccc(Cl)cc4c3CCN2c2nc(C(F)(F)F)nc(C(F)(F)F)n2)cn1 [Compound 538, 4-[(5-{(1S)-2-[4,6-bis(trifluoromethyl)-1,3,5-triazin-2-yl]-6-chloro-2,3,4,9-tetrahydro-1H-pyrido[3,4-b]indol-1-yl}pyrimidin-2-yl)amino]butanoic acid]
–	12	O=C(O)COCCNc1ncc([C@H]2c3[nH]c4ccc(Cl)cc4c3CCN2c2nc(C(F)(F)F)nc(C(F)(F)F)n2)cn1 [Compound 539, {2-[(5-{(1S)-2-[4,6-bis(trifluoromethyl)-1,3,5-triazin-2-yl]-6-chloro-2,3,4,9-tetrahydro-1H-pyrido[3,4-b]indol-1-yl}pyrimidin-2-yl)amino]ethoxy}acetic acid]
–	7.4	Cc1ccc(C2c3[nH]c4cc(F)c(Cl)cc4c3CCN2c2nc(C)c(F)c(C)n2)cc1 (centres unmarked) [Cpd 106, 6-chloro-7-fluoro-2-(5-fluoro-4,6-dimethylpyrimidin-2-yl)-1-(4-methylphenyl)-2,3,4,9-tetrahydro-1H-pyrido[3,4-b]indole]
–	0.7	Fc1c(Cl)ccc(C2c3[nH]c4ccc(Cl)cc4c3CCN2c2nccc(C(F)(F)F)n2)c1F (centres unmarked) [Cpd 144, 6-chloro-1-(4-chloro-2,3-difluorophenyl)-2-[4-(trifluoromethyl)pyrimidin-2-yl]-2,3,4,9-tetrahydro-1H-pyrido[3,4-b]indole]
